What follows are molecules tested against T1, human cGAS (residues 161-522) (Homo sapiens, UniProt Q8N884) (assay: cGAS Activity Assay—Malachite Green). Conditions: recombinant purified human cGAS 25 nM; 80 μM ATP, 80 μM GTP, 100 nM ISD; 4 hour at RT; phosphate detection by Malachite Green.
T1 construct: human cGAS (residues 161-522); made in house
T1 sequence (Q8N884 161-522): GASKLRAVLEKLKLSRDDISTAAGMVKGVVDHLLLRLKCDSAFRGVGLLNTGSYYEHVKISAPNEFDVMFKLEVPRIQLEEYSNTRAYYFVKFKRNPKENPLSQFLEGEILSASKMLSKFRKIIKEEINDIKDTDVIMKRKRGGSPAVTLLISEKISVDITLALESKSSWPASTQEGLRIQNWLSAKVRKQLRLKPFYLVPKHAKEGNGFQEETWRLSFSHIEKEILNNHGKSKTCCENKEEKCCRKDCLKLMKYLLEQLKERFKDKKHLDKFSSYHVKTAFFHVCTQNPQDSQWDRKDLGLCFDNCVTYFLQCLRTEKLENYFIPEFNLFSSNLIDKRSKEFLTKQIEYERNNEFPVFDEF
Type: biochemical
Method in brief: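 Human cGAS (161-522, 25 nM) in 20 mM TRIS pH 7.5, 5 mM MgCl2, 0.01% BSA with 80 μM ATP, 80 μM GTP and 100 nM ISD DNA, 4 h at RT. Pyrophosphate converted by PPase, phosphate read with Malachite Green at 620 nm; IC50 from 4-parameter fit of 16-point series.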
`Cc1oncc1/C(O)=C(\C#N)C(=O)Nc1ncc(C(=O)N(C)c2ccccc2)c(CCc2ccccc2)n1` [Example 134, (Z)-2-(2-cyano-3-hydroxy-3-(5-methylisoxazol-4-yl)acrylamido)-N-methyl-4-phenethyl-N-phenylpyrimidine-5-carboxamide] gave an IC50 of 1710 nM. In the case of `Cc1oncc1/C(O)=C(\C#N)C(=O)Nc1ncc(C(=O)N(C)c2ccccc2)c(-c2ccccc2)n1` [Example 135, (Z)-2-(2-cyano-3-hydroxy-3-(5-methylisoxazol-4-yl)acrylamido)-N-methyl-N,4-diphenylpyrimidine-5-carboxamide], the IC50 is reported as 570 nM. Work on `Cc1oncc1/C(O)=C(\C#N)C(=O)Nc1ncc(S(C)(=O)=O)c(-c2cccc(Cl)c2)n1` [Example 136, (Z)—N-(4-(3-chlorophenyl)-5-(methylsulfonyl)pyrimidin-2-yl)-2-cyano-3-hydroxy-3-(5-methylisoxazol-4-yl)acrylamide] yielded an IC50 of 70 nM. `Cc1oncc1/C(O)=C(\C#N)C(=O)Nc1ncc(S(C)(=O)=O)c(-c2cccc(F)c2)n1` [Example 137, (Z)-2-cyano-N-(4-(3-fluorophenyl)-5-(methylsulfonyl)pyrimidin-2-yl)-3-hydroxy-3-(5-methylisoxazol-4-yl)acrylamide] showed an IC50 of 60 nM. With `Cc1oncc1/C(O)=C(\C#N)C(=O)Nc1ncc(S(C)(=O)=O)c(CCc2ccccc2)n1` [Example 138, (Z)-2-cyano-3-hydroxy-3-(5-methylisoxazol-4-yl)-N-(5-(methylsulfonyl)-4-phenethylpyrimidin-2-yl)acrylamide] the IC50 was 200 nM. With `Cc1oncc1/C(O)=C(\C#N)C(=O)Nc1ncc(S(=O)(=O)c2ccccc2)c(-c2cccc(F)c2)n1` [Example 139, (Z)-2-cyano-N-(4-(3-fluorophenyl)-5-(phenylsulfonyl)pyrimidin-2-yl)-3-hydroxy-3-(5-methylisoxazol-4-yl)acrylamide] the IC50 was 60 nM. In the case of `Cc1oncc1/C(O)=C(\C#N)C(=O)Nc1ncc(S(C)(=O)=O)c(-c2ccccc2Cl)n1` [Example 140, (Z)-N-(4-(2-chlorophenyl)-5-(methylsulfonyl)pyrimidin-2-yl)-2-cyano-3-hydroxy-3-(5-methylisoxazol-4-yl)acrylamide], the IC50 is reported as 240 nM. With `CCc1oncc1/C(O)=C(\C#N)C(=O)Nc1ccc(C(F)(F)F)cc1` [Example 141, (Z)-2-cyano-3-(5-ethylisoxazol-4-yl)-3-hydroxy-N-(4-(trifluoromethyl)phenyl)acrylamide] the IC50 was 6450 nM. Work on `N#C/C(C(=O)Nc1ccc(C(F)(F)F)cc1)=C(/O)c1cnoc1` [Example 142, (Z)-2-cyano-3-hydroxy-3-(isoxazol-4-yl)-N-(4-(trifluoromethyl)phenyl)acrylamide] yielded an IC50 of 5190 nM. With `Cc1oncc1/C(O)=C(\C#N)C(=O)Nc1cccc(CO)c1` [Example 143, (Z)-2-Cyano-3-hydroxy-N-[3-(hydroxymethyl)phenyl]-3-(5-methylisoxazol-4-yl)prop-2-enamide] the IC50 was 960 nM. Molecule `Cc1oncc1/C(O)=C(\C#N)C(=O)Nc1cccc(C(=O)O)c1` [Example 144, 3-[[(Z)-2-Cyano-3-hydroxy-3-(5-methylisoxazol-4-yl)prop-2-enoyl]amino]benzoic acid] has an IC50 of 330 nM. `Cc1oncc1/C(O)=C(\C#N)C(=O)Nc1ccc(CC(=O)O)cc1` [Example 145, 2-[4-[[(Z)-2-Cyano-3-hydroxy-3-(5-methylisoxazol-4-yl)prop-2-enoyl]amino]phenyl]acetic acid] gave an IC50 of 470 nM.
